Results on 20 compounds are retold here after patent publication US9925263B2, “Liquid pharmaceutical formulations for injection comprising procaine and uses thereof” (EAGLE BIOLOGICS, INC., priority 2013, dated 2018).

Where a name gives a salt, the structure may show the parent alone.

One data set has as its system biosimilar AVASTIN®. Briefly: Viscosity of aqueous solutions of biosimilar AVASTIN® with viscosity-lowering agents. The class given is physicochemical. Here is the method:
(§1) (unless otherwise indicated).
The protein was formulated to contain either 0.25 M phosphate buffer or 0.25 M CSAL.
Subsequently, the appropriate amount of viscosity-lowering agent was added to result in a final viscosity-lowering agent concentration of 0.15-0.35 M upon reconstitution.
The viscosity-lowering agent(s) were added in an amount sufficient to give concentration upon reconstitution as specified below. In cases of combinations of agents, the concentration of each component is 0.15 M. The protein solutions were then freeze-dried.

The next data set deals with HERCEPTIN®. Description: Viscosity of aqueous solutions of HERCEPTIN® with viscosity-lowering agents. The class given is physicochemical. Particulars: […] agent, 25° C.
The next data set has as its system TYSABRI®. Briefly: Viscosity of aqueous solutions of TYSABRI® with viscosity-lowering agents. The class given is physicochemical. Particulars: […] agent, 25° C.
The test system of a further data set is biosimilar ERBITUX®. Briefly: Viscosity of aqueous solutions of biosimilar ERBITUX® with viscosity-lowering agents. Conditions: 25° C.
The subject of the next data set is biosimilar RITUXAN®. Description: Viscosity of aqueous solutions of biosimilar RITUXAN® with viscosity-lowering agents.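 Further: absolute viscosity of aqueous antibody solutions determined by microfluidic viscometry (mVROC chip, 50 micron channel) at several flow rates after 5 min equilibration, mean of at least three readings.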 Conditions: 25° C.
The subject of the next data set is REMICADE®. Description: Viscosity of aqueous solutions of […]® with viscosity-lowering agents. The class given is physicochemical. Conditions: for Viscosity: 25° C. Here is the method:
as §1
An extrapolated zero-shear viscosity was determined from a plot of absolute viscosity versus shear rate.
Following reconstitution, the viscosity of each solution was measured using the microfluidic viscometer as described in previous examples. The solutions were then back-loaded into 1 mL BD insulin syringes with 27, 29, or 31 gauge fixed needles. The force required to extrude the concentrated […]® solutions was then measured using an Instron at a rate of displacement equivalent to a fluid flow rate of 3 mL/min. The expelled solution was collected from the syringe and analyzed by size-exclusion chromatography.

[1] abbreviates: 202 ± 2 mg/mL RITUXAN, 0.25M agent, pH 7.0.

Consider `O=C([O-])CCCC[C@@H]1SC[C@@H]2NC(=O)N[C@@H]21.[Na+]` [Biotin-Na], for which the Viscosity was 45.1 ± 0.9 cP in the data set with biosimilar AVASTIN® (189 mg/mL mAb, agent […], 25° C.); 69.9 ± 2.3 cP in the data set on HERCEPTIN® (230 mg/mL HERCEPTIN); 75.8 ± 0.4 cP with TYSABRI® (233 mg/mL TYSABRI).

Regarding `CC1(C)C2CCC1(CS(=O)(=O)O)C(=O)C2` (centres unmarked) [CSA sodium salt, Camphorsulfonic acid], the Viscosity in the data set on biosimilar AVASTIN® (200 ± 5 mg/mL mAb, pH 7.0, 25° C., [Salt] 0.25 M of anion, C & P viscometer) came out at 55.7 ± 0.2 cP; with biosimilar ERBITUX® (222 ± 5 mg/mL mAb, pH 7.0, 0.25M agent), 393 ± 14 cP; in the data set with biosimilar RITUXAN® (setting [1]), 76.1 ± 1.3. The “Fold Reduction” value in the data set with biosimilar ERBITUX® (vs phosphate buffer, 222 ± 5 mg/mL mAb, pH 7.0, 0.25M agent) was 2.9 fold.

As for `CO/N=C(\C(=O)N[C@@H]1C(=O)N2C(C(=O)O)=C(CSc3nc(=O)c(=O)[nH]n3C)CS[C@H]12)c1csc(N)n1` [Ceftriaxone sodium salt, reference compound], the Viscosity with biosimilar AVASTIN® (198 mg/mL mAb, agent […], 25° C.) is reported as 301 ± 5 cP; in the data set on biosimilar ERBITUX® (190 mg/mL mAb, […] agent), 120 ± 2 cP; in the data set with biosimilar RITUXAN® (222 mg/mL mAb, […] agent) it was 198 ± 17 cP.

Take `CCN(CC)CCCC(C)Nc1ccnc2cc(Cl)ccc12` (centres unmarked) [Chloroquine Phosphate, reference compound]: the Viscosity is listed as 27.9 ± 0.6 cP in the data set with biosimilar AVASTIN® (200 mg/mL mAb, agent 0.10M, 25° C.); 58.6 ± 1.6 cP in the data set on biosimilar AVASTIN® (219 mg/mL mAb, agent 0.10M, 25° C.); 71.8 ± 0.9 cP in the data set on biosimilar AVASTIN® (228 mg/mL mAb, agent 0.10M, 25° C.); 37.4 ± 0.9 cP in the data set on biosimilar ERBITUX® (179 mg/mL mAb, 0.10M agent); 54.8 ± 0.2 cP in the data set with biosimilar ERBITUX® (199 mg/mL mAb, 0.10M agent); 67.1 ± 1.1 cP in the data set on biosimilar RITUXAN® (210 mg/mL mAb, 0.10M agent).

As to `CN/C(=N/CCSCc1nc[nH]c1C)NC#N` [Cimetidine HCl, reference compound], the Viscosity was determined as 53.8 ± 2.4 cP with biosimilar AVASTIN® (203 mg/mL mAb, agent […], 25° C.); 19.7 ± 0.2 cP in the data set with biosimilar ERBITUX® (183 mg/mL mAb, […] agent); 49.5 ± 1.2 cP with biosimilar RITUXAN® (215 mg/mL mAb, […] agent).

As to `CN1C2CCCC1CC(NC(=O)c1nn(C)c3ccccc13)C2` (centres unmarked) [Granisetron HCl, reference compound], the Viscosity was found to be 37.9 ± 0.6 cP in the data set with biosimilar AVASTIN® (168 mg/mL mAb, agent […], 25° C.); 308 ± 34 cP with biosimilar AVASTIN® (237 mg/mL mAb, agent […], 25° C.); 23.0 ± 0.2 cP in the data set on biosimilar ERBITUX® (180 mg/mL mAb, […] agent); 51.2 ± 0.8 cP in the data set on biosimilar RITUXAN® (204 mg/mL mAb, […] agent).

Take `CC[C@@H](C(N)=O)N1CCCC1=O` [Levetiracetam, reference compound]: the Viscosity with biosimilar ERBITUX® (176 mg/mL mAb, […] agent) is 103 ± 3 cP; in the data set on biosimilar ERBITUX® (199 mg/mL mAb, […] agent) it was 178 ± 2 cP; in the data set with biosimilar RITUXAN® (205 mg/mL mAb, […] agent), 130 ± 2 cP.

For the compound `CC1(C)S[C@@H]2[C@H](NC(=O)Cc3ccccc3)C(=O)N2[C@H]1C(=O)[O-].[Na+]` [Penicillin G sodium salt, reference compound], the Viscosity in the data set on biosimilar ERBITUX® (178 mg/mL mAb, […] agent) is 82.1 ± 3.6 cP; with biosimilar RITUXAN® (207 mg/mL mAb, […] agent) it was 114 ± 7 cP.

With `CCN(CC)CCOC(=O)c1ccc(N)cc1` [Procaine HCl, reference compound], the Viscosity in the data set with biosimilar AVASTIN® (188 mg/mL mAb, agent […], 25° C.) was determined as 40.8 ± 0.9 cP; in the data set with biosimilar AVASTIN® (222 mg/mL mAb, agent […], 25° C.), 65.8 ± 0.8 cP; with REMICADE® (174 mg/mL REMICADE, […] agent), 23.4 ± 0.2 cP; with HERCEPTIN® (222 mg/mL HERCEPTIN), 41.8 ± 0.6 cP; with TYSABRI® (228 mg/mL TYSABRI), 45.1 ± 1.5 cP; with biosimilar ERBITUX® (230 mg/mL mAb, […] agent), 35.9 ± 0.3 cP. Besides, the Viscosity in the data set on biosimilar RITUXAN® (195 mg/mL mAb, […] agent) was determined as 33.4 ± 1.2 cP; in the data set on biosimilar RITUXAN® (222 mg/mL mAb, […] agent), 46.2 ± 1.1 cP.

`CN1[C@@H]2C[C@@H](OC(=O)[C@H](CO)c3ccccc3)C[C@H]1[C@@H]1O[C@@H]12` [Scopolamine HBr, reference compound]: the Viscosity is recorded as 35.3 ± 1.1 cP in the data set on biosimilar AVASTIN® (210 mg/mL mAb, agent […], 25° C.); 64.0 ± 0.8 cP in the data set on biosimilar AVASTIN® (223 mg/mL mAb, agent […], 25° C.); 87.8 ± 1.5 cP in the data set on biosimilar AVASTIN® (238 mg/mL mAb, agent […], 25° C.); 23.4 ± 0.6 cP with biosimilar ERBITUX® (173 mg/mL mAb, […] agent); 42.3 ± 1.0 cP in the data set on biosimilar RITUXAN® (197 mg/mL mAb, […] agent).

With `O=P1([O-])OP(=O)([O-])OP(=O)([O-])O1.[Na+].[Na+].[Na+]` [Trimetaphosphate-3Na], the Viscosity in the data set with biosimilar AVASTIN® (211 mg/mL mAb, agent […], 25° C.) worked out at 121 ± 6 cP; in the data set with biosimilar RITUXAN® (199 mg/mL mAb, […] agent) it was 126 ± 3.3 cP.

As to CSA-1-o-tolybiguanide, the Viscosity is 121 ± 1 cP in the data set with biosimilar AVASTIN® (228 mg/mL mAb, agent […], 25° C.) and 40.4 ± 1.9 cP in the data set with biosimilar RITUXAN® (190 mg/mL mAb, […] agent).

Regarding CSA-Na-Creatinine, the Viscosity in the data set with biosimilar AVASTIN® (202 mg/mL mAb, agent […], 25° C.) was found to be 38.4 ± 0.9 cP; in the data set with biosimilar RITUXAN® (190 mg/mL mAb, 0.3M agent) it was 33.3 ± 1.1 cP.

For the compound CSA-Na-Ornidazole, the Viscosity in the data set with HERCEPTIN® (232 mg/mL HERCEPTIN) was determined as 60.1 ± 0.6 cP; in the data set on biosimilar RITUXAN® (188 mg/mL mAb, […] agent) it was 40.7 ± 0.5 cP; in the data set with biosimilar RITUXAN® (242 mg/mL mAb, […] agent) it was 63.0 ± 3.5 cP.

Consider CSA-Na-aminocyclohexane carboxylic acid, for which the Viscosity amounted to 69.2 ± 3.7 cP in the data set on biosimilar AVASTIN® (225 mg/mL mAb, agent […], 25° C.) and 61.3 ± 2.5 cP in the data set on biosimilar RITUXAN® (191 mg/mL mAb, […] agent).

On to CSA-Tris, for which the Viscosity in the data set on biosimilar AVASTIN® (197 mg/mL mAb, agent […], 25° C.) is 50 ± 1 cP; in the data set on biosimilar AVASTIN® (206 mg/mL mAb, agent […], 25° C.) it was 64.4 ± 1.4 cP; in the data set on biosimilar RITUXAN® (191 mg/mL mAb, […] agent), 59.1 ± 0.7 cP.

Regarding “Colistin sulfate salt [reference compound]”, the Viscosity in the data set on biosimilar AVASTIN® (240 mg/mL mAb, agent […], 25° C.) is recorded as 261 ± 58 cP; in the data set with biosimilar ERBITUX® (203 mg/mL mAb, […] agent) it was 138 ± 4 cP; in the data set on biosimilar RITUXAN® (230 mg/mL mAb, […] agent), 228 ± 19 cP.

In the case of Ethane disulfonate-diTris-2Na, the Viscosity is on record as above 150 cP with biosimilar AVASTIN® (219 mg/mL mAb, […] agent, pH 7.0, 25° C., microfluidic) and 80.3 ± 16.0 cP with biosimilar RITUXAN® (191 mg/mL mAb, […] agent).

Turning to HEPES-Tris, the Viscosity in the data set on biosimilar AVASTIN® (214 mg/mL mAb, agent […], 25° C.) is recorded as 90.5 ± 1.8 cP; in the data set on biosimilar RITUXAN® (191 mg/mL mAb, […] agent), 50.0 ± 3.8 cP.

Take “sulfosalicylic acid di-arginine [Sulfosalicylic acid diarginine]”: the Viscosity with biosimilar AVASTIN® (228 ± 5 mg/mL mAb, agent […], 25° C., pH 7.0) was 81.6 ± 1.7 cP; in the data set with REMICADE® (166 ± 4 mg/mL REMICADE, 0.25M agent, pH 7.0), 27.1 ± 0.3 cP; with REMICADE® (222 ± 6 mg/mL REMICADE, 0.25M agent, pH 7.0) it was 55.9 ± 1.8 cP; in the data set with biosimilar RITUXAN® (220 mg/mL RITUXAN (footnote *), 0.25M agent, pH 7.0), 68.3 ± 0.8; in the data set on biosimilar RITUXAN® (setting [1]), 44.1 ± 0.1. The Viscosity reduction entry with REMICADE® (0.25M agent vs PB, Table 17) is reported as “about 29 fold”.
